Like-named read-outs stand apart in the source and are kept apart here. [nps] = N3'→P5' thiophosphoramidate linkage; {Palm} = palmitoyl lipid
What was measured:
bone marrow RS cells = assay: Reduction in bone marrow ring sideroblasts; design: species or system human; conditions: in vivo
Description: FIG. 20. […] Also, RBC-TI responders were higher in patients achieving ≥50% reduction in central bone marrow RS.

[1] = system: RBC transfusion-dependent patients with IPSS low or intermediate-1 risk MDS
SF3B1 = assay: Gene mutation analysis (NGS): SF3B1 VAF and clinical response; format: in vivo, human
Description: VAF for the target genes can be determined and/or measured using any convenient methods. In one such method, whole blood collected in an EDTA tube is used to perform Next Generation Sequencing (NGS), for example, using LeukoVantage®. NGS using any other sequencing platform can be used, for example, nanopore sequencing, paired-end sequencing, Ion Torrent sequencing, and single molecule real time (SMRT) sequencing. An MDS gene panel can be used. For example, a gene panel containing one or more of SF3B1, TET2, DNMT3A and ASXL1 can be used. In a specific embodiment, a gene panel that includes the following 36 genes was used: ASXL1, ATM, BCOR, CBL, CEBPA, CSF3R, CUX1, DNMT3A, ETNK1, ETV6, EZH2, FLT3, GATA2, IDH1, IDH2, IKZF1, JAK2, KRAS, NF1, NPM1, NRAS, PHF6, PTEN, PTPN11, RUNX1, SETBP1, SF3B1, SRSF2, STAG2, STAT3, STK11, TET2, TP53, U2AF1, WT1, ZRSR2. The NGS assay can be performed using DNA bait capture methodology on the NextSeq® (Illumina®) platform. Following DNA extraction from leukocytes, a targeted, amplicon-based NGS method is used to detect mutations. […] The percentage of mutation reads will be reported and can be used to assess the size of the clonal population. VAF is the percentage of sequence reads observed matching a specific DNA variant divided by the overall coverage at that locus. Because NGS provides a near random sample, VAF is thus a surrogate measure of the proportion of DNA molecules in the original specimen carrying the variant.
VAF changes were assessed from blood taken pre- and every 12 weeks post-treatment in patients with greater than or equal to 5% variant allele at baseline and >1 post-baseline assessment. T-tests evaluated group comparison, Fisher's exact test evaluated association, and linear regression evaluated correlation. […] The patients achieving ≥8-weeks, ≥24-weeks, and >1-year TI in the imetelstat group were enriched with patients who had ≥50% reductions in SF3B1 and TET2 VAF compared with placebo (FIG. 10).
Blood samples were collected at baseline and during study visits approximately every 12 weeks. Following DNA extraction from leukocytes, a targeted, amplicon-based next generation sequencing was performed at Quest Diagnostics using DNA bait capture methodology on the NextSeq® (Illumina®) platform and a LeukoVantage® MDS Gene Panel covering 36 MDS-relevant genes. The lower limit of sensitivity is 5% mutated alleles in a mixed population; the percentage of mutation reads is reported and used to assess the size of the clonal population.

TET2 = assay: Gene mutation analysis (NGS): TET2 VAF and clinical response; format: in vivo, human; conditions: imetelstat group
Description: VAF for the target genes can be determined and/or measured using any convenient methods. In one such method, whole blood collected in an EDTA tube is used to perform Next Generation Sequencing (NGS), for example, using LeukoVantage®. NGS using any other sequencing platform can be used, for example, nanopore sequencing, paired-end sequencing, Ion Torrent sequencing, and single molecule real time (SMRT) sequencing. An MDS gene panel can be used. For example, a gene panel containing one or more of SF3B1, TET2, DNMT3A and ASXL1 can be used. […] The percentage of mutation reads will be reported and can be used to assess the size of the clonal population. VAF is the percentage of sequence reads observed matching a specific DNA variant divided by the overall coverage at that locus. […]
VAF changes were assessed from blood taken pre- and every 12 weeks post-treatment in patients with greater than or equal to 5% variant allele at baseline and >1 post-baseline assessment. T-tests evaluated group comparison, Fisher's exact test evaluated association, and linear regression evaluated correlation. […]
Blood samples were collected at baseline and during study visits approximately every 12 weeks. […] The lower limit of sensitivity is 5% mutated alleles in a mixed population; the percentage of mutation reads is reported and used to assess the size of the clonal population.

[2] = by lab assessment, listed as imetelstat
[3] = SF3B1 VAF ≥50% reduction No (N=55)
[4] = SF3B1 VAF ≥50% reduction Yes (N=23)

Substance: Imetelstat: first-in-class telomerase inhibitor; synthetic lipid-conjugated 13-mer oligonucleotide N3′→P5′-thiophosphoramidate (TAGGGTTAGACAA; all [nps], 5' {Palm}, sugars by position and methylation of C not given here)
- Patients achieving ≥50% reduction in bone marrow RS cells (bone marrow RS cells): 41%
- Thrombocytopenia, maximum postbaseline CTCAE Grade 4 ([1]; Cycle 10-12 (N=53)): 0 No. of Patients
- ALP abnormality, Grade 3-4 ([1]; N=118): 0 No. of patients
- Serious TEAE: Abscess limb ([1]; N=118): 0 No.
- Patients with any dose reduction ([1]; N=118, listed as imetelstat): 49%
- Withdrawal TEAE: Neutropenia ([1]; N=118, listed as imetelstat): 5%
- Withdrawal TEAE: Thrombocytopenia ([1]; N=118, listed as imetelstat): 3%
- Asthenia, Grade 3-4 ([1]; TEAE, N=118): 0 No. of patients
- Constipation, Grade 3-4 ([1]; TEAE, N=118): 0 No. of patients
- Edema peripheral, Grade 3-4 ([1]; TEAE, N=118): 0 No. of patients
- G3/4 Neutropenia events ([1]; by lab assessment): 279 no. of events
- G3/4 Neutropenia median duration ([1]; by lab assessment): 1.86 Weeks
- G3/4 Thrombocytopenia events ([1]; by lab assessment): 212 no. of events
- G3/4 Thrombocytopenia median duration ([1]; by lab assessment): 1.43 Weeks
- G3/4 Neutropenia median duration [1, 2]: 1.9 Weeks
- G3/4 Thrombocytopenia median duration [1, 2]: 1.4 Weeks
- Dose delays due to neutropenia ([1]; in vivo): 50.8%
- Dose delays due to thrombocytopenia ([1]; in vivo): 46.6%
- Dose reductions due to neutropenia ([1]; in vivo): 33.1%
- Dose reductions due to thrombocytopenia ([1]; in vivo): 22.9%
- Patients with cytopenias reversible to Grade ≤2 within 4 weeks ([1]; in vivo): more than 80%
- Discontinued: Progressive disease ([1]; n=118): 6%
- Grade 3-4 neutropenia ([1]; patients with TI ≥1 year): 95%
- Grade 3-4 neutropenia, patients ([1]; patients with TI ≥1 year): 20 patients
- Grade 3-4 thrombocytopenia ([1]; patients with TI ≥1 year): 67%
- Grade 3-4 thrombocytopenia, patients ([1]; patients with TI ≥1 year): 14 patients
- Grade 3/4 neutropenia events, mean (SD) duration ([1]; patients with TI ≥1 year): 1.78 (1.58) weeks
- Grade 3/4 neutropenia reversible to grade ≤2 within 4 weeks ([1]; patients with TI ≥1 year): 81%
- Grade 3/4 thrombocytopenia events, mean (SD) duration ([1]; patients with TI ≥1 year): 2.25 (2.48) weeks
- Grade 3/4 thrombocytopenia reversible to grade ≤2 within 4 weeks ([1]; patients with TI ≥1 year): 89%
- G3/4 Neutropenia resolved <4 weeks ([1]; resolved to ≤ Grade 2): 81%
- G3/4 Thrombocytopenia resolved <4 weeks ([1]; resolved to ≤ Grade 2): 86%
- Maximal reduction in SF3B1 VAF (SF3B1; 18 ≥1-year TI responders with mutation data): −6% to −100%
- 1-Year RBC-TI Yes (SF3B1; [3]): 5.5%
- 8-Week RBC-TI Yes (SF3B1; [3]): 38.2%
- 24-Week RBC-TI Yes (SF3B1; [3]): 23.6%
- 1-Year RBC-TI Yes (SF3B1; [4]): 47.8%
- 8-Week RBC-TI Yes (SF3B1; [4]): 82.6%
- 24-Week RBC-TI Yes (SF3B1; [4]): 69.6%
- Pearson's r: maximum % reduction in SF3B1 VAF vs maximum change in hemoglobin (SF3B1; imetelstat group, n=67): −0.626
- Complete elimination of the SF3B1 VAF, patients (SF3B1; ≥1-year TI responders (of 18)): 7 patients
- ≥50% SF3B1 VAF reduction (SF3B1; ≥1-year TI responders (of 18)): 72.2%
- ≥50% SF3B1 VAF reduction, patients (SF3B1; ≥1-year TI responders (of 18)): 13 patients
- Pearson's r: maximum % reduction in TET2 VAF vs maximum change in hemoglobin (TET2; n=32): −0.659
- Pearson's r: maximum % reduction in TET2 VAF vs duration of TI (TET2; n=38): −0.577

From US20240285773A1, “METHODS OF TREATING MYELODYSPLASTIC SYNDROME AND MONITORING THE TREATMENT” (Geron Corporation, priority 2023, published 2024)
